{"source": "patent US20240325319A1", "about": "“INHIBITORS OF AMYLOID BETA OLIGOMERIZATION AND THERAPEUTIC USES THEREOF” (Northwestern University, priority 2021, published 2024)", "key": {"[1]": {"biological_target": "cathepsin L (Homo sapiens, UniProt P07711)", "sequence (P07711 114-333, species assumed)": "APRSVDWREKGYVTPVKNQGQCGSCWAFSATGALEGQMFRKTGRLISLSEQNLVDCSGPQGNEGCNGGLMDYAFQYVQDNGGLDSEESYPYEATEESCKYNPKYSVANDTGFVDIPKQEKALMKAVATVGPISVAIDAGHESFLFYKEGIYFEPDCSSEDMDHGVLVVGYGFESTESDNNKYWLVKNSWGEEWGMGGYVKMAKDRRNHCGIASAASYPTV", "assay": "Purified cathepsin L enzyme activity (Z-FR-AMC to 7-AMC)", "format": "biochemical", "conditions": "same concentration range (0.0003-150 μM)", "procedure": "FIG. 26. A) 0.0003-150 μM NU-9 was combined with purified cathepsin L enzyme in the presence of the cathepsin L substrate Z-FR-AMC. Cathepsin L enzyme activity was measured by the rate of 7-AMC production by fluorescence. Percent change in rate was quantified in the graph. […] B) Mature hippocampal neurons were treated with NU-9 for 30 minutes, then Magic Red was used to monitor intracellular cathepsin L activity. Cells were treated in 3 wells, and 9-22 images were analyzed per condition.\nNo effect of 0.0003-150 μM NU-9 was observed on the cathepsin L activity as measured by the production rate of 7-AMC from Z-FR-AMC by purified cathepsin L enzyme."}, "[2]": {"test_system": "AβOs bound to neurons", "assay": "AβOs bound to dendrites of hippocampal neurons treated with Aβ42 monomer (immunofluorescence, NU2/NU4)", "format": "cell-based, rat", "conditions": "for AβO accumulation under cathepsin L inhibition: 10 μM cathepsin L inhibitor 1 h, 500 nM Aβ 30 min; for influence of lysosome acidification inhibitor on the effect of NU-9: Bafilomycin A 100 nM, 30 min prior to 3 μM NU-9, then 500 nM Aβ monomer 30 min"}, "[3]": {"biological_target": "cathepsin B (Homo sapiens, UniProt P07858)", "assay": "Purified cathepsin B enzyme activity (Z-RR-AMC to 7-AMC)", "format": "biochemical", "conditions": "same concentration range (0.0003-30 μM)", "procedure": "FIG. 28. A) 0.0003-30 μM NU-9 was combined with purified cathepsin B enzyme in the presence of the cathepsin B substrate Z-RR-AMC. Cathepsin B enzyme activity was measured by the rate of 7-AMC production by fluorescence. Percent change in rate with NU-9 was quantified in the graph. […] B) Mature hippocampal neurons were treated with NU-9 for 30 minutes, then Magic Red was used to monitor intracellular cathepsin L activity. Cells were treated in 3 wells."}, "[4]": {"test_system": "acidic lysosomes", "assay": "Lysotracker labelling of acidic compartments in hippocampal neurons", "format": "cell-based, rat", "conditions": "addition of control Bafilomycin A", "procedure": "FIG. 24. Mature E18 hippocampal neurons were treated 3 μM NU-9, and subsequently labelled with lysotracker. A) total immunofluorescence (integrated density), B) mean intensity, C) average size of acidic compartments, D) number of acidic compartments."}}, "note": "“Also recorded” adds a separate entry of the source. Where a SMILES comes first, the peptide text is derived from it. The star is where a group is joined. Cbz = O=C(OCc1ccccc1)*", "data": [{"molecule": "O=C[C@H](Cc1ccc(O)cc1)NC(=O)[C@H](Cc1ccccc1)NC(=O)OCc1ccccc1", "note": "[Z-FY-CHO] (Cbz-Phe-Tyr-aldehyde)", "values": [{"measurement": "cathepsin L activity, standard inhibitor", "setting": "[1]", "result": "reduced cathepsin L activity"}, {"measurement": "AβO accumulation under cathepsin L inhibition", "setting": "[2]", "result": "mimicked the effect of NU-9"}, {"measurement": "AβO accumulation under cathepsin L inhibition", "setting": "[2]; listed as Cathepsin L inhibitor", "result": "prevents AβO accumulation"}]}, {"molecule": "CC(C)C[C@H](NC(=O)[C@H]1O[C@@H]1C(=O)O)C(=O)NCCCCN=C(N)N", "note": "[E64]", "values": [{"measurement": "number of bound AβOs, inhibitor alone", "setting": "[2]; E64 10 μM, 24 h, Aβ monomer 500 nM 30 min", "result": "significantly reduced the number of bound AβOs"}, {"measurement": "influence of cysteine cathepsin inhibitor on the effect of NU-9", "setting": "[2]; E64 10 μM, 24 h, then NU-9 3 μM 30 min, Aβ monomer 500 nM 30 min", "result": "did not significantly change the effectiveness of NU-9; also recorded: does not prevent the effect of NU-9"}]}, {"molecule": "MDL-28170", "values": [{"measurement": "AβO accumulation under calpain inhibition", "setting": "[2]; 10 μM MDL-28170 30 min, 500 nM Aβ42 30 min", "result": "reducing AβO accumulation; also recorded: may mimic the effect of NU-9"}]}, {"molecule": "CCCNC(=O)[C@H]1O[C@@H]1C(=O)N[C@H](C(=O)N1CCC[C@H]1C(=O)O)[C@@H](C)CC", "note": "[CA-074]", "values": [{"measurement": "cathepsin B activity, standard inhibitor", "setting": "[3]", "result": "Clear inhibition of enzyme activity"}, {"measurement": "influence of cathepsin B inhibitor on the effect of NU-9", "setting": "[2]; 10 μM CA-074 24 h, 3 μM NU-9 30 min, 500 nM Aβ monomer 30 min", "result": "prevented the effect of NU-9"}]}, {"molecule": "Ic1cccc(/C=N/Nc2nc(N3CCOCC3)nc(N(c3ccccc3)c3ccccc3)n2)c1", "note": "[vacuolin-1]", "values": [{"measurement": "influence of inhibition of lysosome maturation and exocytosis on NU-9", "setting": "[2]; 1 μM vacuolin-1 1 h pre-treatment, 3 μM NU-9 30 min, 500 nM Aβ42", "result": "prevented the effectiveness of NU-9"}]}, {"molecule": "CC(C)C[C@@H](C=O)NC(=O)[C@H](CC(C)C)NC(=O)[C@H](CC(C)C)NC(=O)OCc1ccccc1", "note": "[MG132] (Cbz-Leu-Leu-Leu-aldehyde)", "values": [{"measurement": "formation of AβOs under proteasome inhibition", "setting": "[2]; 100 nM MG132 30-min pre-treatment, 500 nM Aβ42", "result": "no effect on formation of AβOs"}, {"measurement": "influence of proteasome inhibition on reduction of AβO accumulation by NU-9", "setting": "[2]; 100 nM MG132 30 min, 3 μM NU-9 30 min, 500 nM Aβ42", "result": "no effect on formation of AβOs or reduction of AβO accumulation by NU-9"}]}, {"molecule": "CO/C1=C\\C(C)=C\\[C@@H](C)[C@@H](O)[C@@H](C)C/C(C)=C/C=C/[C@H](OC)[C@@H]([C@@H](C)[C@@H](O)[C@H](C)[C@@]2(O)C[C@@H](O)[C@H](C)[C@@H](C(C)C)O2)OC1=O", "note": "[Bafilomycin A]", "values": [{"measurement": "integrated fluorescent density of lysotracker, control", "setting": "[4]", "result": "significantly reduced"}, {"measurement": "neuron-binding AβOs with lysosome inhibitor in the absence of NU-9", "setting": "[2]; 100 nM bafilomycin A 30 min, Aβ monomer 500 nM 30 min, vs Aβ monomer alone", "result": "did not lead to the formation of significantly more neuron-binding AβOs"}, {"measurement": "influence of lysosome acidification inhibitor on the effect of NU-9", "setting": "[2]", "result": "prevents the effect of NU-9 on AβOs bound to synapses; also recorded: significantly prevented the effect of NU-9"}, {"measurement": "influence of lysosome acidification inhibitor on the effect of NU-9", "setting": "[2]; listed as Bafilomyicin A", "result": "prevented the effect of NU-9"}]}]}
